The record followed here is ChEMBL document CHEMBL1129711, “Nonpeptide GPIIb/IIIa inhibitors. 10. Centrally constrained alpha-sulfonamides are potent inhibitors of platelet aggregation” (Bioorg Med Chem Lett, 1996).

In assay [1] the target is T1, Integrin alpha-IIb/beta-3 (Homo sapiens, UniProt P05106+P08514). The assay is described as follows: Binding affinity against alpha IIb beta-3 integrin by [125I]-L-692,884 displacement. It is filed as protein-complex assay.
The species entered for assay [2] is Homo sapiens. As to the kind of experiment: In vitro inhibition of ADP-induced human platelet aggregation. In kind it is functional.
The target in assay [3] is T1, Integrin alpha-IIb/beta-3. As to the kind of experiment: Binding affinity against alpha IIb beta-3 integrin in the presence of L-736622. In kind it is protein-complex assay.
Target sequence in this assay (P05106 27-788 limits assumed): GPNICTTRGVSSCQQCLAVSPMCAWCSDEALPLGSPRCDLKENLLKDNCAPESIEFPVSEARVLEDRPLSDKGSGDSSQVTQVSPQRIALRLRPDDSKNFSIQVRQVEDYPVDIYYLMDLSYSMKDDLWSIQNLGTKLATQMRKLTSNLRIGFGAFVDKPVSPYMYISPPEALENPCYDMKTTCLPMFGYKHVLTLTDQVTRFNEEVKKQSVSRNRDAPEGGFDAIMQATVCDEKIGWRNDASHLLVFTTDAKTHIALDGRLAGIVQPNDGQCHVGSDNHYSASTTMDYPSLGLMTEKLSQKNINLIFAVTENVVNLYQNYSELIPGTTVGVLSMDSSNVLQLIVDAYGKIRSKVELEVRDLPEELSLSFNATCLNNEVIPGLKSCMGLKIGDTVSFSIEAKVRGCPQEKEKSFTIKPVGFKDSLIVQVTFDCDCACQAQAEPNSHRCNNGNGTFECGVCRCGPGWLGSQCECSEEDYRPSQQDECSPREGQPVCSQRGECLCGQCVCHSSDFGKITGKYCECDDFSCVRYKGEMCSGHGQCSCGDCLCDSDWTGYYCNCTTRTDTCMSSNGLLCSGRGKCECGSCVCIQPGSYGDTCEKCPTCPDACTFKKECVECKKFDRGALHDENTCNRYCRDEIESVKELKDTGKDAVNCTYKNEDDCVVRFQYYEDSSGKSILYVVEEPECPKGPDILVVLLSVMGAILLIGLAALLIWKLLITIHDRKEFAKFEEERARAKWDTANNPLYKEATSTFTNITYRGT
Target sequence in this assay (P08514 32-887 limits assumed): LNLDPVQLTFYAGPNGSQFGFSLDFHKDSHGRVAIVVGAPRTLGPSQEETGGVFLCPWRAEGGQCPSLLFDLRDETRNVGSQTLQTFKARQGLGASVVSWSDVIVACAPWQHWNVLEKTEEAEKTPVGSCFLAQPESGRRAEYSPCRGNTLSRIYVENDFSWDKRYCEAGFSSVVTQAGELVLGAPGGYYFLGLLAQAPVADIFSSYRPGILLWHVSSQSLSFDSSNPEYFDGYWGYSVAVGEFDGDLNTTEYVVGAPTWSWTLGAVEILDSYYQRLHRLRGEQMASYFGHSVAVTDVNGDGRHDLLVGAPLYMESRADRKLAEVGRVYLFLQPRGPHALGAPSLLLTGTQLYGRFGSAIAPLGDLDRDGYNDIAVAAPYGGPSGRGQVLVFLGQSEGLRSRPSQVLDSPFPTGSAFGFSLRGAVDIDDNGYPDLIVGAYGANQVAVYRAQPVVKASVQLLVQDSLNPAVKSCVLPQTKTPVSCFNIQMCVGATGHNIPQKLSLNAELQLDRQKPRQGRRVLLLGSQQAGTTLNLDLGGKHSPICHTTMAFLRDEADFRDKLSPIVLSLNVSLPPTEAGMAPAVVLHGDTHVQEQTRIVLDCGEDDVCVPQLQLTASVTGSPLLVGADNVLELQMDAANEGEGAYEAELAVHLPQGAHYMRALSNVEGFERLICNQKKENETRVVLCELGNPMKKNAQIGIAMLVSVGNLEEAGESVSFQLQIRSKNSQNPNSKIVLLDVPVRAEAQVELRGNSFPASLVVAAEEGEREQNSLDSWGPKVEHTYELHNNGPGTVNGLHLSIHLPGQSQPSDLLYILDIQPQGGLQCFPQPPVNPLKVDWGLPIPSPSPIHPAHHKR
Target sequence in this assay (P08514 891-1039 limits assumed): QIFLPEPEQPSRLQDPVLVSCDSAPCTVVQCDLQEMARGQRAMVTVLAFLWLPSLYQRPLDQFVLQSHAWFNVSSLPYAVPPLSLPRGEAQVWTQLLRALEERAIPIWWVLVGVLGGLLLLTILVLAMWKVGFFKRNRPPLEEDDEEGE

In turn, `CCCCS(=O)(=O)N[C@@H](CNC(=O)c1ccc2c(c1)C(=O)N(CCC1CCNCC1)C2)C(=O)O` (stereo in doubt; 13) [listing 1 of 2 here] gave an ED50 in assay [1] of 1.3 nM.
As usually defined, the IC50 is the concentration needed to halve the response being measured. A high value points to lower potency. As for `CCCCS(=O)(=O)N[C@@H](Cc1ccc(OCCCCC2CCNCC2)cc1)C(=O)O` [TIROFIBAN], in assay [1], the ED50 was found to be 0.97 nM. The IC50 in assay [2] was 11 nM.
For orientation: Kd means a measure of binding affinity in units of concentration. `O=C(O)CCNC(=O)c1ccc2c(c1)C(=O)N(CCC1CCNCC1)C2`: the equilibrium dissociation constant (Kd) in assay [3] is 100 nM.
On to `O=C(NC[C@H](NS(=O)(=O)Cc1ccccc1)C(=O)O)c1ccc2c(c1)C(=O)N(CCC1CCNCC1)C2`, for which the ED50 in assay [1] is 1.6 nM. Besides, in assay [3], the Kd was 12 nM. This molecule had a 50% inhibitory concentration (IC50) in assay [2] of 4 nM.
For the molecule `CC(C)CS(=O)(=O)N[C@@H](CNC(=O)c1ccc2c(c1)C(=O)N(CCC1CCNCC1)C2)C(=O)O`, the ED50 in assay [1] was determined as 1.2 nM. Further, the dissociation constant (Kd) in assay [3] worked out at 7.5 nM. The molecule also yielded an IC50 in assay [2] of 9 nM.
In turn, `O=C(NC[C@H](NS(=O)(=O)c1ccccc1C(=O)O)C(=O)O)c1ccc2c(c1)C(=O)N(CCC1CCNCC1)C2` returned an ED50 in assay [1] of 0.83 nM. Besides, in assay [3], the dissociation constant Kd turned out to be 6.4 nM. This molecule also came in with an IC50 in assay [2] of 15 nM.
The molecule `O=C(NCc1ccccc1)N[C@@H](CNC(=O)c1ccc2c(c1)C(=O)N(CCC1CCNCC1)C2)C(=O)O` yielded an ED50 in assay [1] of 1.2 nM. Besides, the Kd in assay [3] came to 6 nM. Also, 10 nM corresponded to half-maximal inhibition in assay [2] (IC50).
In turn, `CCOCCS(=O)(=O)N[C@@H](CNC(=O)c1ccc2c(c1)C(=O)N(CCC1CCNCC1)C2)C(=O)O` showed an ED50 in assay [1] of 1.1 nM. Moreover, in assay [3], the equilibrium dissociation constant (Kd) is 5.1 nM. Moreover, the half-inhibitory concentration (IC50) in assay [2] was 8 nM.
Regarding `CCCCS(=O)(=O)N[C@@H](CNC(=O)c1ccc2c(c1)C(=O)N(CCC1CCNCC1)C2)C(=O)O` (stereo in doubt) [listing 1 of 2 here], the ED50 in assay [1] is 5.5 nM.
`CCCCNC(=O)N[C@@H](CNC(=O)c1ccc2c(c1)C(=O)N(CCC1CCNCC1)C2)C(=O)O` yielded an ED50 in assay [1] of 1.4 nM. Further, the Kd in assay [3] stood at 6.9 nM. Further, in assay [2], it took 16 nM to reach half-maximal inhibition (IC50).
`CS(=O)(=O)N[C@@H](CNC(=O)c1ccc2c(c1)C(=O)N(CCC1CCNCC1)C2)C(=O)O`: the ED50 in assay [1] turned out to be 3.4 nM. For the same molecule, the equilibrium dissociation constant (Kd) in assay [3] was 7.4 nM. Half-maximal inhibition in assay [2] (IC50) required 14 nM.
The molecule `O=C(NC[C@H](NS(=O)(=O)c1cccnc1)C(=O)O)c1ccc2c(c1)C(=O)N(CCC1CCNCC1)C2` came in with an ED50 in assay [1] of 0.38 nM. The equilibrium dissociation constant (Kd) in assay [3] turned out to be 3.6 nM. Also, the IC50 in assay [2] turned out to be 15 nM.
The corresponding values for `CCCCNS(=O)(=O)N[C@@H](CNC(=O)c1ccc2c(c1)C(=O)N(CCC1CCNCC1)C2)C(=O)O` are 2.8 nM, 21 nM and 19 nM.
As for `CCCCS(=O)(=O)N[C@@H](CNC(=O)c1ccc2c(c1)C(=O)N(CCC1CCNCC1)C2)C(=O)O` (stereo in doubt; 13) [listing 2 of 2 here], the Kd in assay [3] worked out at 4.4 nM.
For the molecule `CCCCS(=O)(=O)N[C@@H](CNC(=O)c1ccc2c(c1)C(=O)N(CCC1CCNCC1)C2)C(=O)O` (stereo in doubt) [listing 2 of 2 here], the equilibrium dissociation constant (Kd) in assay [3] worked out at 8.8 nM. This molecule also showed an IC50 in assay [2] of 14 nM.
In assay [1], `O=C(O)c1ccc(S(=O)(=O)N[C@@H](CNC(=O)c2ccc3c(c2)C(=O)N(CCC2CCNCC2)C3)C(=O)O)cc1` returned an ED50 of 2 nM. For the same molecule, the dissociation constant Kd in assay [3] amounted to 15 nM. This molecule registered an IC50 in assay [2] of 7 nM.
In turn, `CCCCCS(=O)(=O)N[C@@H](CNC(=O)c1ccc2c(c1)C(=O)N(CCC1CCNCC1)C2)C(=O)O` registered an ED50 in assay [1] of 0.88 nM. Moreover, the dissociation constant (Kd) in assay [3] turned out to be 7.6 nM. This molecule also yielded an IC50 in assay [2] of 9 nM.
Take `O=C(NC[C@H](NS(=O)(=O)c1cccs1)C(=O)O)c1ccc2c(c1)C(=O)N(CCC1CCNCC1)C2`: the ED50 in assay [1] came to 0.53 nM. Besides, the Kd in assay [3] amounted to 7.7 nM. In assay [2], this molecule displayed an IC50 of 7 nM.
In the same order, the values of `O=C(NC[C@H](NS(=O)(=O)c1ccccc1)C(=O)O)c1ccc2c(c1)C(=O)N(CCC1CCNCC1)C2` are 0.33 nM, 3.7 nM and 8 nM.
In turn, `CCCCCC(=O)N[C@@H](CNC(=O)c1ccc2c(c1)C(=O)N(CCC1CCNCC1)C2)C(=O)O` showed an ED50 in assay [1] of 4.2 nM. Further, in assay [3], the Kd came to 6.4 nM. The molecule also displayed a half-maximal inhibitory concentration (IC50) in assay [2] of 13 nM.
